“Also recorded” adds a separate entry of the source.

The conditions of data set [1]: cited from earlier work.
For data set [2], the system named is rSARS-COV-2mNG. Format: cell-based, SARS-COV-2.
The test system of data set [3] is CXCL10 expression. The format is cell-based, human.

Regarding `CCC(=O)O[C@]1(C(=O)SCF)[C@H](C)C[C@H]2[C@@H]3C[C@H](F)C4=CC(=O)C=C[C@]4(C)[C@@]3(F)[C@@H](O)C[C@@]21C` [Fluticasone propionate], the “solubility in 95% ethanol” value in data set [1] (95% ethanol) was “slightly soluble”. Further, in data set [1] (dimethyl sulfoxide), the “solubility in dimethyl sulfoxide” value is reported as “freely soluble”. In data set [1] (dimethylformamide), the solubility in dimethylformamide result is “freely soluble”. In addition, the solubility in methanol entry in data set [1] (methanol) is reported as “slightly soluble”. Besides, the solubility in water result in data set [1] (water) is listed as “practically insoluble”.

As for `COc1cc(OC)c2c(=O)cc(-c3cc(C)c(OCCCN4CCN(C)CC4)c(C)c3)oc2c1` [ZL0969], the “virus titer (FFA)” value in data set [2] is listed as “significantly reduce virus titer”. The CXCL10 expression result in data set [3] was “reduces expression levels of CXCL10; also recorded: reduce CXCL10 expression”.

The values above are taken from patent US20240325383A1, “Small Molecule Targeting of BRD4 for Treatment of COVID-19” (Board of Regents, The University of Texas System, priority 2023, published 2024).
